Results on eight compounds are retold here after patent US12605330B2, “Screening method for offensive odor-suppressing material” (Takasago International Corporation, priority 2019, dated 2026).

In test [1] the target is T1, human olfactory receptor OR4Q3 (Homo sapiens, UniProt Q8NH05).
T1 construct: N-terminal 20 amino acid residues of bovine rhodopsin (Rho tag); expressed in transfected cells; host or cells: HEK293T cells, pME18S expression vector, co-transfected with RTP1S vector and luciferase reporters
T1 sequence (Q8NH05 1-313): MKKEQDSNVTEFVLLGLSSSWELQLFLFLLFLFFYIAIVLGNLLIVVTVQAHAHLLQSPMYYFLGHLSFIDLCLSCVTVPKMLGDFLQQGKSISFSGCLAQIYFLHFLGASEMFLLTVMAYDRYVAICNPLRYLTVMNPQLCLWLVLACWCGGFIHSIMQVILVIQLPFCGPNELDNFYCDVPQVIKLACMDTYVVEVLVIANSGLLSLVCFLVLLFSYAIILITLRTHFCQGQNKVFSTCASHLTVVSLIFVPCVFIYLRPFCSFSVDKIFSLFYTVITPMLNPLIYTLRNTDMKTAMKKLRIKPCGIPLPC
As to the kind of experiment: Luciferase reporter gene assay, response of olfactory receptor OR4Q3 to odorous substance. It is filed as cell-based. As to conditions: HEK293T cells expressing OR4Q3, various concentrations, 3 hours stimulation; FIGS. 2, 4, 5, 6. The protocol: Human olfactory receptor genes were obtained by PCR cloning with Human Genomic DNA: Female (Promega) on the basis of their sequence information registered in GenBank. Into pME18S vectors, the N-terminal 20 amino acid residues of bovine rhodopsin were integrated and the resulting human olfactory receptor genes were integrated respectively downstream thereof to obtain human olfactory receptor gene expression vectors.
(§1) Each human olfactory receptor gene expression vector (0.05 μg), RTP1S vector (0.01 μg), firefly luciferase vector pGL4.29 containing a cAMP response element promoter (Promega, 0.01 μg) and Renilla luciferase vector pGL4.74 containing a thymidine kinase promoter (Promega, 0.005 μg) were dissolved in 10 μL of Opti-MEMI (gibco) to give a gene solution (for one well). HEK293T cells were seeded in 100 μL volumes into 96-well plates (Biocoat, Corning) at a cell density reaching confluence after 24 hours, and the gene solutions were added to the respective wells to cause gene transfer into the cells by lipofection techniques in accordance with the usage of Lipofectamine 3000, followed by culture at 37° C. under a 5% carbon dioxide atmosphere for 24 hours.
(§2) After removal of the culture solutions, an odorous substance serving as an analyte, which had been prepared at a given concentration with CD293 (gibco) medium (supplemented with […] L-glutamine), was added in 50 μL volumes to stimulate the cells for 3 hours, followed by luciferase activity measurement in accordance with the usage of a Dual-Luciferase Reporter Assay System (Promega). The response intensity of each olfactory receptor polypeptide was expressed as a fold increase value, which was determined by dividing the luciferase activity generated upon stimulation with the odorous substance by the luciferase activity generated in a test system not containing the odorous substance.
(§3) The cells engineered to express human olfactory receptors OR2C1 and OR4Q3 were used to measure the response of these receptors to various concentrations of 1-octen-3-one by the luciferase reporter gene assay.
Background: In a reporter assay the amount or activity of a reporter protein is the signal.

The test system of test [2] is cells not engineered to express the olfactory receptors. As to the kind of experiment: Mock test, luciferase reporter gene assay. Format: cell-based, human. As for the experimental part:
as §1, §2, §3

Test [3] has as its target T2, human olfactory receptor OR2C1 (Homo sapiens, UniProt O95371).
T2 construct: N-terminal 20 amino acid residues of bovine rhodopsin (Rho tag); expressed in transfected cells; host or cells: HEK293T cells, pME18S expression vector, co-transfected with RTP1S vector and luciferase reporters
T2 sequence (O95371 1-312): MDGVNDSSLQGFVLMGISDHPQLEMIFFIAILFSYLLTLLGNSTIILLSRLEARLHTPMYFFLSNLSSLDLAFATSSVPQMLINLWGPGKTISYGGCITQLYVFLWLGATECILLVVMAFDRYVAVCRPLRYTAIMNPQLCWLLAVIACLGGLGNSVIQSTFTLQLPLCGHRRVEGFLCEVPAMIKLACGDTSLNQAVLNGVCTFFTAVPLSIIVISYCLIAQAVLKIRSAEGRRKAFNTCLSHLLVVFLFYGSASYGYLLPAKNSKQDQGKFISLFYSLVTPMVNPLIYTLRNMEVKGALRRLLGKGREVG
As to the kind of experiment: Luciferase reporter gene assay, response of olfactory receptor OR2C1 to odorous substance. Format: cell-based. To be noted: HEK293T cells expressing OR2C1, various concentrations, 3 hours stimulation; FIGS. 1 and 3.
From the text: (§4) Human olfactory receptor genes were obtained by PCR cloning with Human Genomic DNA: Female (Promega) on the basis of their sequence information registered in GenBank. Into pME18S vectors, the N-terminal 20 amino acid residues of bovine rhodopsin were integrated and the resulting human olfactory receptor genes were integrated respectively downstream thereof to obtain human olfactory receptor gene expression vectors. […]
as §2, with “substance. […]” for “substance.”

In another test the target is T3, OR2C1 (Homo sapiens, UniProt O95371).
T3 construct: N-terminal 20 amino acid residues of bovine rhodopsin (Rho tag); expressed in transfected cells; host or cells: HEK293T cells, pME18S expression vector, co-transfected with RTP1S vector and luciferase reporters
T3 sequence (O95371 1-312): T2 sequence (O95371 1-312)
As to the kind of experiment: Suppressive effect of offensive odor-suppressing materials on the response of OR2C1 (luciferase reporter gene assay). It is filed as cell-based. As to conditions: mixed at various concentrations with 30 μM 1-octen-3-one; FIGS. 7 and 8.
From the text: as §4
as §2, with “substance. […]” for “substance.”

In another test the target is T4, olfactory receptor OR2W1 (Homo sapiens, UniProt Q9Y3N9).
T4 sequence (Q9Y3N9 1-320): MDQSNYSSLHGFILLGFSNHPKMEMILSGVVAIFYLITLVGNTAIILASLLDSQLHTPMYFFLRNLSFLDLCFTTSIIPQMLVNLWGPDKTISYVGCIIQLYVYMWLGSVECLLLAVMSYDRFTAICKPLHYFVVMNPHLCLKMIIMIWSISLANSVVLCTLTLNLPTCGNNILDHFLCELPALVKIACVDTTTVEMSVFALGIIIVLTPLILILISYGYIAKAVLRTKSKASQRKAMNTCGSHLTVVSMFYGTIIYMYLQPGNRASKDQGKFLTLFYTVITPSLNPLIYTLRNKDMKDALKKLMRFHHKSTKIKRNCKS
As to conditions: background art; cited from earlier work.

The conditions of test [4]: background art; cited from earlier work.

Consider `C=CC(O)CC=CCC` (stereo not drawn) [1,5-octadien-3-ol], for which the “response of OR4Q3 to the odorous substance (fold increase value)” value (“response of OR4Q3 … (fold increase value)” for short) in test [1] is given as “respond to 1,5-octadien-3-ol in a concentration-dependent manner”. Further, the “response in Mock test” value in test [2] was “no response was observed”. On to `C=CC(=O)CC=CCC` [1,5-octadien-3-one], for which, in test [1], the “response of OR4Q3 … (fold increase value)” value was “respond to 1,5-octadien-3-one in a concentration-dependent manner”. Further, in test [3], the “response of OR2C1 to the odorous substance (fold increase value)” value was “respond to 1,5-octadien-3-one in a concentration-dependent manner”. For the same compound, in test [2], the “response in Mock test” value was “no response was observed”. In the case of `CCCC(O)CCC1C(C)CCCC1(C)C` (stereo not drawn) [1-(2,2,6-trimethylcyclohexyl)hexan-3-ol], the “suppressive effect on the response of OR2C1 to 1-octen-3-one (ratio of fold increase value, without material set to 100)” value on OR2C1 is given as “reducing the response of OR2C1 to 1-octen-3-one in a concentration-dependent manner”. As for `C=CC(O)CCCCC` (stereo not drawn) [1-octen-3-ol], the “response of OR4Q3 … (fold increase value)” value in test [1] is “respond to 1-octen-3-ol in a concentration-dependent manner”. For the same compound, in test [2], the “response in Mock test” value is reported as “no response was observed”. In the case of `C=CC(=O)CCCCC` [1-octen-3-one], the “response of OR4Q3 … (fold increase value)” value in test [1] was “respond to 1-octen-3-one in a concentration-dependent manner”. Moreover, the “response of OR2C1 to the odorous substance (fold increase value)” value in test [3] is “respond to 1-octen-3-one in a concentration-dependent manner”. In test [2], the “response in Mock test” value is on record as “no response was observed”. Regarding `CC(=CCC1CC=C(C)C1(C)C)CO` (stereo not drawn) [2-methyl-4-(2,2,3-trimethylcyclopent-3-enyl)but-2-en-1-ol], on OR2C1, the “suppressive effect on the response of OR2C1 to 1-octen-3-one (ratio of fold increase value, without material set to 100)” value is “reducing the response of OR2C1 to 1-octen-3-one in a concentration-dependent manner”.

As for `CC(C)c1cccc(C(C)CC=O)c1` (stereo not drawn) [florhydral], at olfactory receptor OR2W1, the “inhibition of the activity of OR2W1” value is on record as “inhibiting the activity of this OR2W1”. In addition, the “suppression of offensive odor induced by hexanoic acid in sensory testing” value in test [4] was “suppress an offensive odor induced by hexanoic acid”. With `CCCCCC(=O)O` [hexanoic acid], the “response of OR2W1 to the odorous substance” value on olfactory receptor OR2W1 was “responds to hexanoic acid”.
